Test systems include HL-60(TB) leukemia; MALME-3M melanoma; K-562 leukemia; SK-OV-3 ovarian; SW-620 colon; SK-MEL-2 melanoma; DU-145 prostate; IGROV1 ovarian; RXF 393 renal; LOX IMVI melanoma.
Common to all, as to assay: inhibition of tumour cell growth, NCI panel, 48 h

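96-well plates; 48 h exposure; 5 concentrations. Endpoints by linear interpolation between flanking doses. Not reached: highest tested concentration assigned. GI50 = concentration required for 50% inhibition of growth. TGI: concentration producing complete growth inhibition.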

As for `O=C1C(=O)c2cccnc2-c2ncccc21`, the GI50 was 0.18 µM in the test on HL-60(TB) leukemia; 0.215 µM with MALME-3M melanoma; 0.211 µM with K-562 leukemia; 1.16 µM with SK-OV-3 ovarian; 0.072 µM with SW-620 colon; 0.71 µM in the test on SK-MEL-2 melanoma. In addition, the GI50 in the test on DU-145 prostate is 0.239 µM; with IGROV1 ovarian, 0.133 µM; with RXF 393 renal, 0.0768 µM; in the test on LOX IMVI melanoma it was 0.06 µM. The TGI in the test on HL-60(TB) leukemia was determined as 0.443 µM; in the test with MALME-3M melanoma it was 0.769 µM; with K-562 leukemia it was 0.848 µM; in the test with SK-OV-3 ovarian, 2.98 µM; in the test with SW-620 colon it was 1.12 µM; in the test with SK-MEL-2 melanoma it was 2.35 µM. Moreover, the TGI with DU-145 prostate is 1.28 µM; in the test with IGROV1 ovarian it was 0.413 µM; in the test on RXF 393 renal it was 0.266 µM; in the test with LOX IMVI melanoma it was 0.36 µM.
As to `O=c1c(O)c(-c2cc(O)c(O)c(O)c2)oc2cc(O)cc(O)c12`, the TGI with HL-60(TB) leukemia is greater than 100 µM; in the test on MALME-3M melanoma, greater than 100 µM; with K-562 leukemia, greater than 100 µM; in the test with SK-OV-3 ovarian, greater than 100 µM; with SW-620 colon, 36 µM; in the test with SK-MEL-2 melanoma, greater than 100 µM. Moreover, the TGI is greater than 100 µM in the test on DU-145 prostate, greater than 100 µM in the test on IGROV1 ovarian, 43.4 µM in the test with RXF 393 renal and 31 µM in the test on LOX IMVI melanoma.
Consider `Cc1cccc(NC(=O)c2cccc([N+](=O)[O-])c2O)c1C`, for which the TGI was 22.1 µM in the test on HL-60(TB) leukemia; greater than 84.2 µM in the test on MALME-3M melanoma; greater than 31.6 µM in the test with K-562 leukemia; greater than 81.9 µM with SK-OV-3 ovarian; greater than 100 µM in the test with SW-620 colon; 46.9 µM in the test on SK-MEL-2 melanoma. In addition, the TGI with DU-145 prostate was greater than 100 µM; in the test with IGROV1 ovarian it was greater than 100 µM; in the test with RXF 393 renal it was 53.6 µM; in the test with LOX IMVI melanoma it was greater than 72.8 µM.
For the compound `O=C(O)C1CC(O)CN1` (centres undefined), the TGI in the test on HL-60(TB) leukemia, with MALME-3M melanoma, with K-562 leukemia, with SK-OV-3 ovarian, in the test with SW-620 colon and in the test with SK-MEL-2 melanoma was greater than 100 µM each time. The TGI with DU-145 prostate, with IGROV1 ovarian, in the test on RXF 393 renal and with LOX IMVI melanoma was greater than 100 µM throughout.
For the compound `CN(C)c1ccc(/C=C/c2cc[n+](C)c(/C=C/c3ccc(N(C)C)cc3)c2)cc1`, the GI50 with HL-60(TB) leukemia was 0.19 µM; in the test on MALME-3M melanoma it was 0.39 µM; in the test with K-562 leukemia it was 0.163 µM; with SK-OV-3 ovarian, 0.27 µM; with SW-620 colon, 0.336 µM; with SK-MEL-2 melanoma it was 0.256 µM. Besides, the GI50 with DU-145 prostate is 0.398 µM; in the test on IGROV1 ovarian, 0.821 µM; with RXF 393 renal, 0.389 µM; in the test with LOX IMVI melanoma it was 0.356 µM. The TGI is 0.873 µM in the test on HL-60(TB) leukemia; 2.21 µM with MALME-3M melanoma; 3.25 µM in the test with K-562 leukemia; 1.39 µM with SK-OV-3 ovarian; 5.6 µM in the test with SW-620 colon; 0.713 µM in the test on SK-MEL-2 melanoma. Besides, the TGI with DU-145 prostate came out at 11 µM; in the test with IGROV1 ovarian, 3.43 µM; in the test with RXF 393 renal, 1.91 µM; in the test with LOX IMVI melanoma, 1.45 µM.
Turning to `CCCCCCCc1cc2c3c(nc4ccccc42)C(=O)c2cccnc2-c3n1`, the GI50 in the test on HL-60(TB) leukemia was 1.42 µM; in the test on MALME-3M melanoma, 5.07 µM; in the test on K-562 leukemia, 1.29 µM; in the test on SK-OV-3 ovarian it was 15.3 µM; in the test on SW-620 colon, 1.5 µM; in the test on SK-MEL-2 melanoma it was 12.3 µM. The GI50 was 2.54 µM in the test with DU-145 prostate, 3.28 µM in the test on IGROV1 ovarian, 5.67 µM in the test on RXF 393 renal and 2.19 µM in the test on LOX IMVI melanoma. Moreover, the TGI is 10.9 µM in the test with MALME-3M melanoma; greater than 24.2 µM in the test with K-562 leukemia; 28.6 µM in the test with SK-OV-3 ovarian; 6.34 µM with SW-620 colon; 27.2 µM in the test with SK-MEL-2 melanoma; 6.63 µM in the test on DU-145 prostate. For the same compound, the results for the TGI with IGROV1 ovarian, in the test with RXF 393 renal and in the test on LOX IMVI melanoma were 15.1 µM, 11.1 µM and 7.29 µM, respectively.
With `C#CCOc1cccc(Nc2ncnc3cc(NC(=O)CCl)ccc23)c1`, the GI50 is 3.29 µM in the test with HL-60(TB) leukemia; 5.21 µM in the test with MALME-3M melanoma; 0.628 µM in the test with K-562 leukemia; 4.36 µM in the test with SK-OV-3 ovarian; 1.23 µM in the test on SW-620 colon; 12.4 µM in the test on SK-MEL-2 melanoma. In addition, the GI50 in the test with DU-145 prostate is 10 µM; with IGROV1 ovarian, 2.78 µM; with RXF 393 renal, 13.2 µM; in the test with LOX IMVI melanoma it was 1.19 µM. Further, the TGI came out at 12.5 µM in the test on HL-60(TB) leukemia; 20.5 µM in the test with MALME-3M melanoma; 4.69 µM with K-562 leukemia; 17.2 µM with SK-OV-3 ovarian; 3.25 µM in the test on SW-620 colon; 27.4 µM in the test with SK-MEL-2 melanoma. Besides, the TGI turned out to be 21.6 µM with DU-145 prostate, 11.9 µM with IGROV1 ovarian, 27.7 µM in the test on RXF 393 renal and 2.7 µM with LOX IMVI melanoma.

Source of the values: PubChem BioAssay (NCI).
